Source: patent US20130190345A1, “MATRINIC ACID/MATRINE DERIVATIVES AND PREPARATION METHODS AND USES THEREOF” (priority 2010, published 2013)

system: Hsc70; test: Detection of Hsc70 gene expression level upon action of compound on 2.2.15 cells (real-time fluorescent quantified PCR); assay type: cell-based; set-up: Hsc70 mRNA / Hsc70 down-regulation rate (%): unit not given here; conditions: 2.2.15 cells; down-regulation of liver cell Hsc70 gene
Description: 2.2.15 cells (purchased from Vertex Pharmaceutical Co., USA) in a number of 1×10^6 were inocubated to 6-well plate, cultured in a culture medium containing 10% fetal calf serum for 24 hr, the original culture medium was discarded, replaced with a culutre medium containing 400 μg/ml OMTR, which was used as control. Compounds were firstly dissolved in MEM to form 20 mg/ml mother liquid, which was diluted with culture medium when used and then applied to cells. The compounds of Examples 1-114 were separately used for treatment for 12, 24, 36 hr, then cells were harvested for extraction of RNA and DNA, then the changes of Hsc70 mRNA and HBV DNA were detected by real-time fluorescent quantified PCR.

Going from `O=C1CC(OCc2ccccc2)CC2C3CCCN4CCCC(CN12)C34` (stereo not shown) [Compound 6c, 13-benzyloxy matrine] to `O=C(OC1CC(=O)N2C[C@@H]3CCCN4CCC[C@@H]([C@H]34)[C@H]2C1)c1ccccc1` (stereo partly shown) [Compound 6d, 13-benzoyloxy matrine], the “Hsc70 mRNA” value rises from 24.7 ± 0.10 to 51.0 ± 0.11.

Compared with `O=C1CC(C[N+](=O)[O-])CC2C3CCCN4CCCC(CN12)C34` (stereo not shown) [Compound 7a, 13-nitromethyl matrine], `CNC1CC(=O)N2C[C@@H]3CCCN4CCC[C@@H]([C@H]34)[C@H]2C1` (stereo partly shown) [Compound 7b, 13-methylaminomatrine] is higher in “Hsc70 mRNA” value: 35.8 ± 0.09 for the first, 40.1 ± 0.09 for the second.

Going from `O=C(OC1CC2C3CCCN4CCCC(CN2C(=O)C1OC(=O)c1ccc(F)c([N+](=O)[O-])c1)C34)c1ccc(F)c([N+](=O)[O-])c1` (stereo not shown) [Compound 9d, 13,14-di(4-fluoro-3-nitro) benzoyloxy matrine] to `O=C(OC1CC2C3CCCN4CCCC(CN2C(=O)C1O)C34)c1ccc(F)c([N+](=O)[O-])c1` (stereo not shown) [Compound 9i, 14-hydroxyl-13-(4-fluoro-3-nitro)benzoyloxy matrine], the “Hsc70 mRNA” value rises from 30.8 ± 0.06 to 43.4 ± 0.08.

First: O=C1CCC[C@@H]2[C@H]3CCC[N+]4([O-])CCC[C@@H](CN12)[C@@H]34 (stereo partly shown) [Compound 1, reference compound]
Second: O=C1C=CCC2C3CCC[N+]4([O-])CCCC(CN12)C34 (stereo not shown) [Compound 4, oxidized sophocarpine]
The “Hsc70 mRNA” value of the first is higher: 55.0 ± 0.10 for the first, 15.3 ± 0.21 for the second.

Going from `CC(=O)OC1CC2C3CCCN4CCCC(CN2C(=O)C1O)C34` (stereo not shown) [Compound 9e, 14-hydroxyl-13-acetyloxy matrine] to `CC(Cl)C(=O)OC1CC2C3CCCN4CCCC(CN2C(=O)C1O)C34` (stereo not shown) [Compound 9g, 14-hydroxyl-13-2-chloropropionyloxy matrine], the “Hsc70 mRNA” value rises from 37.1 ± 0.16 to 48.6 ± 0.11.

First: O=C1C(OCc2ccccc2)C(OCc2ccccc2)CC2C3CCCN4CCCC(CN12)C34 (stereo not shown) [Compound 9b, 13,14-dibenzyloxy matrine]
Second: O=C(OC1CC2C3CCCN4CCCC(CN2C(=O)C1O)C34)c1ccccc1 (stereo not shown) [Compound 9h, 14-hydroxyl-13-benzoyloxy matrine]
The “Hsc70 mRNA” value of the first is higher: 45.4 ± 0.11 for the first, 34.5 ± 0.10 for the second.

First: CC(=O)OC1CC2C3CCCN4CCCC(CN2C(=O)C1O)C34 (stereo not shown) [Compound 9j, 14-hydroxyl-13-acetyloxy matrine]
Second: O=C(CCl)OC1CC2C3CCCN4CCCC(CN2C(=O)C1O)C34 (stereo not shown) [Compound 9f, 14-hydroxyl-13-chloroacetyloxy matrine]
The “Hsc70 mRNA” value of the first is lower: 54.8 ± 0.21 for the first, 88.2 ± 0.21 for the second.

Going from `O=C1CCC[C@@H]2[C@H]3CCCN4CCC[C@@H](CN12)[C@@H]34` [Compound 2, reference compound] to `COC1CC(=O)N2CC3CCCN4CCCC(C34)C2C1` (stereo not shown) [Compound 6a, 13-methoxy matrine], the “Hsc70 mRNA” value falls from 52.4 ± 0.17 to 48.6 ± 0.16.

Going from `COC1CC2C3CCCN4CCCC(CN2C(=O)C1OC)C34` (stereo not shown) [Compound 9a, 13,14-dimethoxy matrine] to `O=C1C=CCC2C3CCCN4CCCC(CN12)C34` (stereo not shown) [Compound 3, reference compound], the “Hsc70 mRNA” value falls from 39.3 ± 0.20 to 21.6 ± 0.13.

In the case of 13,14-diacetyloxy matrine [Compound 9c], the “Hsc70 mRNA” value was less than 10.

same assay, conditions: 2.2.15 cells; relative to OMT (= 1)

First: O=C(O)CCCC1C2CCCN3CCCC(CN1CCO)C23 (stereo not shown) [DM-117, N-(2-hydroxyl)ethyl matrinic acid]
Second: O=C1CCC[C@@H]2[C@H]3CCC[N+]4([O-])CCC[C@@H](CN12)[C@@H]34 (stereo partly shown) [OMT, Oxymatrine, reference compound]
The “Hsc70 inhibition rate (down-regulation of Hsc70 expression activity, expressed in relative OMT ratio)” value of the first is lower: 0.84 for the first, 1 for the second.

Going from `COc1cccc(CN2CC3CCCN4CCCC(C2CCCC(=O)O)C34)c1` (stereo not shown) [DM-142, N-(3-methoxy)benzyl matrinic acid] to `O=C(O)CCCC1C2CCCN3CCCC(CN1Cc1ccccc1)C23` (stereo not shown) [DM-108, N-benzylmatrinic acid], the “Hsc70 inhibition rate (down-regulation of Hsc70 expression activity, expressed in relative OMT ratio)” value rises from 1.07 to 1.25.

First: O=C(O)CCCC1C2CCC[N+]3([O-])CCCC(CN1Cc1ccccc1)C23 (stereo not shown) [DM-1081, N-benzyl oxymatrinic acid]
Second: O=C1CCC[C@@H]2[C@H]3CCCN4CCC[C@@H](CN12)[C@@H]34 [MT, Matrine]
The “Hsc70 inhibition rate (down-regulation of Hsc70 expression activity, expressed in relative OMT ratio)” value of the first is higher: 1.26 for the first, −16 for the second.

Going from `O=C(O)CCCC1C2CCCN3CCCC(CN1C(=O)CCl)C23` (stereo not shown) [DM-104, N-chloroacetyl matrinic acid] to `Cc1ccc(S(=O)(=O)N2CC3CCCN4CCCC(C34)C2CCCC(=O)O)cc1` (stereo not shown) [DM-102, N-(4-methylbenzenesulfonyl) matrinic acid], the “Hsc70 inhibition rate (down-regulation of Hsc70 expression activity, expressed in relative OMT ratio)” value rises from −7 to 1.1.

Going from N,N-dimethyl oxymatrinic acid [DM-1111] to `Cc1cccc(OC(C)C(=O)N2CC3CCCN4CCCC(C34)C2CCCC(=O)O)c1` (stereo not shown) [DM-106, N-(2-m-methylphenoxy)propionylmatrinic acid], the “Hsc70 inhibition rate (down-regulation of Hsc70 expression activity, expressed in relative OMT ratio)” value rises from −0.25 to 1.67.

Compared with `C=C(C)[C@H](CCC(C)(C)O)Cc1c(O)cc(OC)c2c1O[C@H](c1ccc(O)cc1O)CC2=O` [DM-200, kurarinol], `O=C(O)CCCC1C2CCCN3CCCC(CN1CC1CC1)C23` (stereo not shown) [DM-115, N-cyclopropylmethyl matrinic acid] is lower in “Hsc70 inhibition rate (down-regulation of Hsc70 expression activity, expressed in relative OMT ratio)” value: 0.81 for the first, −33 for the second.

Compared with `O=C(O)CCCC1NCC2CCC[N+]3([O-])CCCC1C23` (stereo not shown) [DM-1001, N-oxidized matrinic acid], `Cc1cccc(OCC(=O)N2CC3CCCN4CCCC(C34)C2CCCC(=O)O)c1` (stereo not shown) [DM-104a, N-(2-m-methylphenoxy)acetyl matrinic acid] is lower in “Hsc70 inhibition rate (down-regulation of Hsc70 expression activity, expressed in relative OMT ratio)” value: 0.92 for the first, −2.98 for the second.

Going from `COc1ccc(CN2CC3CCC[N+]4([O-])CCCC(C2CCCC(=O)O)C34)cc1` (stereo not shown) [DM-1221, N-(4-methoxybenzyl) oxymatrinic acid] to `O=C(O)CCCC1C2CCCN3CCCC(CN1C(=O)c1ccccc1)C23` (stereo not shown) [DM-107, N-benzoyl matrinic acid], the “Hsc70 inhibition rate (down-regulation of Hsc70 expression activity, expressed in relative OMT ratio)” value falls from 1.34 to 1.04.

First: O=C(O)CCCC1C2CCC[N+]3([O-])CCCC(CN1CC1CC1)C23 (stereo not shown) [DM-1151, N-cyclopropylmethyl oxymatrinic acid]
Second: C[N+]1(C)CC2CCCN3CCCC(C23)C1CCCC(=O)[O-] (stereo not shown) [DM-111, N,N-dimethyl matrinic acid]
The “Hsc70 inhibition rate (down-regulation of Hsc70 expression activity, expressed in relative OMT ratio)” value of the first is higher: 0.52 for the first, 0.25 for the second.

Going from N-oxidized kurarinol [DM-2001] to `O=CN1CC2CCCN3CCCC(C1CCCC(=O)O)C23` (stereo not shown) [DM-106a, N-formylmatrinic acid], the “Hsc70 inhibition rate (down-regulation of Hsc70 expression activity, expressed in relative OMT ratio)” value falls from −0.42 to −54.

With `O=C(O)CCCC1C2CCCN3CCCC(CN1C(=O)CO)C23` (stereo not shown) [DM-105, N-(2-hydroxyl)acetylmatrinic acid] the “Hsc70 inhibition rate (down-regulation of Hsc70 expression activity, expressed in relative OMT ratio)” value was less than 10.
For `O=C(O)CCCC1C2CCCN3CCCC(CN1C(=O)C=Cc1ccccc1)C23` (stereo not shown) [DM-110, N-cinnamoyl matrinic acid], the “Hsc70 inhibition rate (down-regulation of Hsc70 expression activity, expressed in relative OMT ratio)” value was less than 10.
With `O=C(O)CCCC1C2CCCN3CCCC(CN1S(=O)(=O)c1ccccc1)C23` (stereo not shown) [DM-109, N-benzenesulfonyl matrinic acid] the “Hsc70 inhibition rate (down-regulation of Hsc70 expression activity, expressed in relative OMT ratio)” value was less than 10.
In the case of `CCN1CC2CCCN3CCCC(C1CCCC(=O)O)C23` (stereo not shown) [DM-112, N-ethyl matrinic acid], the “Hsc70 inhibition rate (down-regulation of Hsc70 expression activity, expressed in relative OMT ratio)” value was less than 10.
In the case of `CCCN1CC2CCCN3CCCC(C1CCCC(=O)O)C23` (stereo not shown) [DM-113, N-propyl matrinic acid], the “Hsc70 inhibition rate (down-regulation of Hsc70 expression activity, expressed in relative OMT ratio)” value was less than 10.

system: HCV; test: Inhibition effects of compounds on HCV in Huh7.5 cultured cell after HCV infection; assay type: cell-based; conditions: HCV-infected Huh7.5 cells, 200 μg/mL, Western blotting (FIG. 7B)
Description: 1×10^5/ml Huh7.5 cells (purchased from Vertex Pharmaceutical Co., USA) were inoculated in an amount of 0.1 ml on 96-well culture plate, placed in an incubator with 37° C., 5% CO2 content and saturation humidity, and cultured for 24 h, HCV virus in 45 IU/cell was used to infect Huh7.5, different drug solutions (DM122) formulated with culture medium were added, and cell control and HCV infection control were set. Cultivation was continuously performed in the incubator with 37° C., 5% CO2 content and saturation humidity for 72 h, kit for RNA extraction was used to extract intracellular RNA, one-step qRT-PCR was used to determine intracellular contents of HCV and GAPDH RNA, and the inhibition effects of drug on HCV infection was analyzed. […] In comparison with the virus control group, the inhibition effects on HCV infection upon action of different drugs were analyzed. […] This experiment was repeated for 3 times, * indicated […] in comparison with control, ** indicated p<0.01 in comparison with control.

In the case of `CC(Cl)C(=O)OC1CC2C3CCCN4CCCC(CN2C(=O)C1O)C34` (stereo not shown) [Compound 9g, 14-hydroxyl-13-2-chloropropionyloxy matrine], the “anti-HCV activity (HCV nucleoprotein and Hsc70 protein levels)” value was “significant activity on anti-HCV”.
For α-interferon, the “anti-HCV activity (HCV nucleoprotein and Hsc70 protein levels)” value was “capable of inhibiting HCV replication”.
